Results reported in patent US20230278954A1, “BRANCHED LIPID COMPOUDS” (priority 2020, published 2023).
Values joined by “and” are separate entries in the source; they are usually repeats but may differ in a detail not shown here. Equal values may be shown once.

Assays:
mouse TLR2 = target: T1, mouse TLR2 (Mus musculus, UniProt Q9QUN7); test: HEK-Blue mTLR2 dose response (SEAP reporter); type: cell-based
T1 construct: expressed in transfected cells; host or cells: HEK-Blue mTLR2 cells
Method: (§1) Toll-Like Receptor (TLR) stimulation is tested by assessing NF-KB activation in the TLR expressing cell lines. HEK-Blue h/mTLR2 cells have been stably transfected with human or mouse TLR2 and CD14. The activity of the test articles are tested on human and mouse TLR2, as potential agonists. The test articles are evaluated at seven concentrations and compared to control ligands (see list below). These steps are performed in triplicate.
(§2) A 5 µg/mL working stock was then prepared for each compound from the 20 µg/mL dilution in sterile PBS. Starting from the 5 µg/mL working stock, a series of six 1:4 serial dilutions were made by mixing 100 µL of the previous highest dilution with 300 µL sterile PBS.
(§3) The secreted embryonic alkaline phosphatase (SEAP) reporter is under the control of a promoter inducible by the transcription factor NF-κB. This reporter gene allows the monitoring of signaling through the TLR, based on the activation of NF-κB. In a 96-well plate (200 µL total volume) containing the appropriate cells (50,000 - 75,000 cells/well), 20 µL of the test article or the positive control ligand (HKLC) is added to the wells. The media added to the wells is designed for the detection of NF-κB induced SEAP expression. After a 16-24-hour incubation the optical density (OD) is read at 650 nm on a Molecular Devices SpectraMax 340PC absorbance detector.

[1] = Stability IV: formulation pH during accelerated storage; type: physicochemical
Method: Each compound was formulated in 0.9% w/w saline with addition of 0.1% w/w EDTA at about pH 5. The formulations were stored in the dark under accelerated conditions (40° C./75% RH) and reference formulations were stored at -80° C. At days 0, 9 and 28, samples were analysed by UHPLC and pH was measured.
The remaining ~ 1 mL of solution in the clear glass HPLC vials was stored at 40° C./75% RH and was used to measure pH at each time point.
The formulation pH data recorded at each time point are compiled in Table 19. There was a general trend for the pH to increase with time but the effect was not pronounced.

HEK-Blue Null1 cells = test: TLR- control cell line HEK-Blue Null1 (control for human TLR2); type: cell-based
Method: as §3

HEK-Blue Null2 cells = test: TLR- control cell line HEK-Blue Null2 (control for mouse TLR2); type: cell-based
Method: as §3

human TLR2 [2] = target: T2, human TLR2 (Homo sapiens, UniProt O60603); test: Activation of human TLR2 II: HEK-BLUE-hTLR2 NF-kB/SEAP reporter assay; type: cell-based; conditions: for optical density (650 nm): screenings 1-3
T2 construct: expressed in transfected cells; host or cells: HEK-Blue hTLR2 cells
Method: The potency of the compounds as activators of human TLR-2s is tested in an in vitro assay in HEK-BLUE-hTLR2 cells.
HEK-BLUE-hTLR2 cells are designed for studying the stimulation of human TLR2 (hTLR2) by monitoring the activation of NF-kB. HEK-BLUE-hTLR2 cells are obtained by co-transfection of the hTLR2 and SEAP (secreted embryonic alkaline phosphatase) reporter genes into HEK293 cells. Stimulation with a TLR2 ligand activates NF-kB which induces the production of SEAP.
HEK-BLUE-hTLR2 cells were purchased from InvivoGen (San Diego, CA, USA). Cells were grown in DMEM supplemented with 10% FCS, 100 U/ml penicillin, 100 ug/ml streptomycin and 2 mM L-glutamine, 100 µg/mL Normocin in the presence of selection antibiotic purchased from InvivoGen and passaged when 70% confluence was reached per manufacturer’s recommendation.
i) A serial dilution of respective compounds were prepared in saline and added in […] of each dilution in triplicates per well in a flat bottom 96-well plate and placed in the incubator while waiting for the cells.
ii) Remove HEK-BLUE-hTLR2 cells in a T-75 flask from incubator and discard the growth media.
iii) Gently rinse the cells with prewarmed 10 ml of PBS
iv) Add 5 ml of prewarmed PBS and place the cells in 37° C. for 2 mins and then detach the cells by gently pipetting up and down the PBS on the surface where the cells adhere.
v) Cells suspension at the density of 280,000 cells/ml is prepared in HEK-Blue™ Detection medium which is purchased from InvivoGen and prepared according to the manufacturer’s instruction,
vi) Add immediately […] of the cell suspension per well of the plate which contains the solution of the compounds. […]

human TLR2 [3] = target: T2, human TLR2; test: Activation of human TLR2 III: HEK-Blue hTLR2 dose response (SEAP reporter); type: cell-based; conditions: for optical density (650 nm): screenings 1-3
Method: as §1, §2, §3

T2 sequence (O60603 21-784): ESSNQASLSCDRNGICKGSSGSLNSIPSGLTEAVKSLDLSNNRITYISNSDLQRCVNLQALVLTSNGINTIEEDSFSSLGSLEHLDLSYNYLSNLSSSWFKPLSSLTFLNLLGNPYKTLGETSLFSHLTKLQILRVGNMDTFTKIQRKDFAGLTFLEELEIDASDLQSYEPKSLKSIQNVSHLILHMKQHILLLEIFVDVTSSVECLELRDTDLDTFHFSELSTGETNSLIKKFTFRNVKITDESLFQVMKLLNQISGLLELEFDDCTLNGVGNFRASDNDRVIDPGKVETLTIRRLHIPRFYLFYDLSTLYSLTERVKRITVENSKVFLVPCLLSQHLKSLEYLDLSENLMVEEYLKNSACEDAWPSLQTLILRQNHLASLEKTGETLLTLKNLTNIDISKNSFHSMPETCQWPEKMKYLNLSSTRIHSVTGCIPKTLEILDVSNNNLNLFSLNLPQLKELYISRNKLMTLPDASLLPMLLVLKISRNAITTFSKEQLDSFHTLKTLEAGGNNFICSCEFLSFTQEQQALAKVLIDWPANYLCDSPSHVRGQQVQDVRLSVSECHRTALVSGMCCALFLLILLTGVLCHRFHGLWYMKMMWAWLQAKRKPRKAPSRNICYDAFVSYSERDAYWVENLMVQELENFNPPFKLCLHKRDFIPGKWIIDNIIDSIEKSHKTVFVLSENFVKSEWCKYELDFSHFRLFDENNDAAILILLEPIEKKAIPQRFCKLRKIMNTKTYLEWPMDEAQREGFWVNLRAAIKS
T2 sequence (Q9Y2C9 32-796 partner): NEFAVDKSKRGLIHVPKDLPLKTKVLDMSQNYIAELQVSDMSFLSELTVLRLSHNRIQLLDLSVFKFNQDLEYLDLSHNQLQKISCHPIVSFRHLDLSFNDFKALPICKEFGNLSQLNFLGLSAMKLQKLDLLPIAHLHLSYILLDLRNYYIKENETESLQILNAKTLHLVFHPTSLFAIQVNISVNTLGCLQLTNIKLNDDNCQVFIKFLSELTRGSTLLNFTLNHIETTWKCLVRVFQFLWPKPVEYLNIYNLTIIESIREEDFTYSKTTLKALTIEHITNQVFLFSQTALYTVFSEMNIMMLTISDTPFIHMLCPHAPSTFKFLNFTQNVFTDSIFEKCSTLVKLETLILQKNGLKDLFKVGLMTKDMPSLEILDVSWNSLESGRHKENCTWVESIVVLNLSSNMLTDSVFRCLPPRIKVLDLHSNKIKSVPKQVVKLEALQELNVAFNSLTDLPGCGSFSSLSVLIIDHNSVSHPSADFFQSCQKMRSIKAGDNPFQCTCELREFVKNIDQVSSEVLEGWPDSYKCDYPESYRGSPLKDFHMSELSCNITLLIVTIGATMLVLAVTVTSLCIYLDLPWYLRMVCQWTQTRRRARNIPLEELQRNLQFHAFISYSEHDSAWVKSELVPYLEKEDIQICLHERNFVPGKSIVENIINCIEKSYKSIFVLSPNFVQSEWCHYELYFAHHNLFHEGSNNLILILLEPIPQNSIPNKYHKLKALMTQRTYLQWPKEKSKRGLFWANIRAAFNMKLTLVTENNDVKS
T1 sequence (Q9QUN7 25-784): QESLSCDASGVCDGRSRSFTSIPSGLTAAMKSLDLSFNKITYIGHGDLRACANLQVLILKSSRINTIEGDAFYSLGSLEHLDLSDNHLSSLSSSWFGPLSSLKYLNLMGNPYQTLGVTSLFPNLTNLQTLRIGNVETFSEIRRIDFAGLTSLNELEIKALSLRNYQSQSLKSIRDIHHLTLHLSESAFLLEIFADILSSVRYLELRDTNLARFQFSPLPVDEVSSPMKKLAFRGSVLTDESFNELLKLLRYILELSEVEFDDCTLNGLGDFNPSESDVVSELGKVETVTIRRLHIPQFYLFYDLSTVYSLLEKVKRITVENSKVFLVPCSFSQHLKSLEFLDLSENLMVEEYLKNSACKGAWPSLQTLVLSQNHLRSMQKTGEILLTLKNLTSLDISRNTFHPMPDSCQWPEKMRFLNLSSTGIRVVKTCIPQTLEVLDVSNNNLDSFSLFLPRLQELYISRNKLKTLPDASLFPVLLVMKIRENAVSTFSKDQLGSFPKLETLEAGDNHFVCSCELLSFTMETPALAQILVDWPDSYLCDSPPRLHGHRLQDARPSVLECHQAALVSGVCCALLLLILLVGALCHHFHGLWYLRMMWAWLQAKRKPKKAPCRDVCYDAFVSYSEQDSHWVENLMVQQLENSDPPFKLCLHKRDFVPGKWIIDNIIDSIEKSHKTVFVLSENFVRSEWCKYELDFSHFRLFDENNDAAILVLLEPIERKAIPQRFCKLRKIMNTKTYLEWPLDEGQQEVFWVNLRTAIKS
T1 sequence (Q9Y2C9 32-796 partner): as the sequence (Q9Y2C9 32-796 partner) above

## CCCCCCCCCCCCCCC(C)C(=O)OCC[C@H](CSC[C@H](N)C(=O)N[C@@H](CO)C(=O)NCCOCCOCCOCCOCCOCCOCCOCCOCCOCCOCCOCCOCCOCCOCCOCCOCCOCCOCCOCCOCCOCCOCCOCCOCCOCCOCCOCCOCCC(=O)NCC(N)=O)OC(=O)C(C)CCCCCCCCCCCCCC (stereo partly drawn) [Compound B12]
Mouse TLR2
  stimulatory / agonist activity for mTLR2 (in words): stimulatory activity
[1]; 0-days
  pH of formulation: 5.6
[1]; 9-days, 40° C./75% RH
  pH of formulation: 5.7
[1]; 28-days, 40° C./75% RH
  pH of formulation: 5.7
HEK-Blue Null1 cells
  stimulatory response in HEK-Blue Null1 (human) cells (in words): not observed
HEK-Blue Null2 cells
  stimulatory response in HEK-Blue Null2 (mouse) cells (in words): not observed
Human TLR2 [2]; 0.1 ng/mL
  optical density (650 nm): 0.239 and 0.202 and 0.208
Human TLR2 [2]; 0.31 ng/mL
  optical density (650 nm): 0.116 and 0.132 and 0.137
Human TLR2 [2]; 0.5 ng/mL
  optical density (650 nm): 0.585 and 0.558 and 0.559
Human TLR2 [2]; 2.0 ng/mL
  optical density (650 nm): 1.429 and 1.308 and 1.638
Human TLR2 [2]; 7.8 ng/mL
  optical density (650 nm): 2.187 and 2.257 and 2.302
Human TLR2 [2]; 31.3 ng/mL
  optical density (650 nm): 2.422 and 2.423 and 2.449
Human TLR2 [2]; 125 ng/mL
  optical density (650 nm): 2.409 and 2.564 and 2.615
Human TLR2 [2]; HEK-BLUE-hTLR2 cells
  EC50: 0.74 nM
  activity at TLR2 (in words): significant activity
Human TLR2 [2]; HEK-Blue hTLR2, 0.1 ng/mL, read-out: Fold induction (ratio of average induced value to average non-induced value)
  fold induction at 0.0001 µg/mL: 2.2
Human TLR2 [2]; HEK-Blue hTLR2, 0.31 ng/mL, read-out: Fold induction (ratio of average induced value to average non-induced value)
  fold induction at 0.00031 µg/mL: 1.3
Human TLR2 [2]; HEK-Blue hTLR2, 0.5 ng/mL, read-out: Fold induction (ratio of average induced value to average non-induced value)
  fold induction at 0.0005 µg/mL: 5.8
Human TLR2 [2]; HEK-Blue hTLR2, 2.0 ng/mL, read-out: Fold induction (ratio of average induced value to average non-induced value)
  fold induction at 0.002 µg/mL: 15
Human TLR2 [2]; HEK-Blue hTLR2, 7.8 ng/mL, read-out: Fold induction (ratio of average induced value to average non-induced value)
  fold induction at 0.0078 µg/mL: 23.2
Human TLR2 [2]; HEK-Blue hTLR2, 31.3 ng/mL, read-out: Fold induction (ratio of average induced value to average non-induced value)
  fold induction at 0.0313 µg/mL: 25.1
Human TLR2 [2]; HEK-Blue hTLR2, 125 ng/mL, read-out: Fold induction (ratio of average induced value to average non-induced value)
  fold induction at 0.125 µg/mL: 26.1
Human TLR2 [3]; 0.12 pg/mL
  Average optical density (650 nm): 1.362
  optical density (650 nm): 1.443 and 1.313 and 1.329
Human TLR2 [3]; 0.49 pg/mL
  Average optical density (650 nm): 1.860
  optical density (650 nm): 1.892 and 1.785 and 1.902
Human TLR2 [3]; 1.95 pg/mL
  Average optical density (650 nm): 2.045
  optical density (650 nm): 2.149 and 2.008 and 1.979
Human TLR2 [3]; 7.81 pg/mL
  Average optical density (650 nm): 2.411
  optical density (650 nm): 2.420 and 2.446 and 2.366
Human TLR2 [3]; 31.25 pg/mL
  Average optical density (650 nm): 2.457
  optical density (650 nm): 2.492 and 2.500 and 2.380
Human TLR2 [3]; 125 pg/mL
  Average optical density (650 nm): 2.568
  optical density (650 nm): 2.608 and 2.541 and 2.555
Human TLR2 [3]; 500 pg/mL
  Average optical density (650 nm): 2.471
  optical density (650 nm): 2.584 and 2.404 and 2.426
Human TLR2 [3]; HEK-Blue hTLR2
  stimulatory / agonist activity for hTLR2 (in words): stimulatory activity
Human TLR2 [3]; HEK-Blue hTLR2, 0.12 pg/mL, read-out: Fold Induction (ratio of average induced value to average non-induced value)
  fold induction at 120 fg/mL: 18.7
Human TLR2 [3]; HEK-Blue hTLR2, 0.49 pg/mL, read-out: Fold Induction (ratio of average induced value to average non-induced value)
  fold induction at 490 fg/mL: 25.5
Human TLR2 [3]; HEK-Blue hTLR2, 1.95 pg/mL, read-out: Fold Induction (ratio of average induced value to average non-induced value)
  fold induction at 1.95 pg/mL: 28
Human TLR2 [3]; HEK-Blue hTLR2, 7.81 pg/mL, read-out: Fold Induction (ratio of average induced value to average non-induced value)
  fold induction at 7.81 pg/mL: 33
Human TLR2 [3]; HEK-Blue hTLR2, 31.25 pg/mL, read-out: Fold Induction (ratio of average induced value to average non-induced value)
  fold induction at 31.25 pg/mL: 33.7
Human TLR2 [3]; HEK-Blue hTLR2, 125 pg/mL, read-out: Fold Induction (ratio of average induced value to average non-induced value)
  fold induction at 0.000125 µg/mL: 35.2
Human TLR2 [3]; HEK-Blue hTLR2, 500 pg/mL, read-out: Fold Induction (ratio of average induced value to average non-induced value)
  fold induction at 0.0005 µg/mL: 33.9
Human TLR2 [3]; agonism of hTLR2, HEK-Blue hTLR2
  EC50: 0.0509 nM
